Measurements from paper PMC8587043, “An Investigation into the Interaction between Double Hydroxide-Based Antioxidant Benzophenone Derivatives and Cyclooxygenase 2” (Molecules, 2021).
Like-named read-outs stand apart in the source and are kept apart here.

What was measured:
[1] = target: T1, COX2 (Homo sapiens, UniProt P35354); test: Fluorescence quenching of COX2 (Stern-Volmer, double logarithm, thermodynamic parameters); assay type: binding; details: for KA relative to the control compound: 298 K and 310 K; for Kq (bimolecular quenching constant): Kq = Ksv/τ0; for Kd: read-out: KA (binding constant) (converted); for ΔH (enthalpy change) / ΔS (entropy change): from KA at 298 K and 310 K
T1 construct: purchased Sino Biological Co. (Beijing, China)
T1 sequence (P35354 18-604): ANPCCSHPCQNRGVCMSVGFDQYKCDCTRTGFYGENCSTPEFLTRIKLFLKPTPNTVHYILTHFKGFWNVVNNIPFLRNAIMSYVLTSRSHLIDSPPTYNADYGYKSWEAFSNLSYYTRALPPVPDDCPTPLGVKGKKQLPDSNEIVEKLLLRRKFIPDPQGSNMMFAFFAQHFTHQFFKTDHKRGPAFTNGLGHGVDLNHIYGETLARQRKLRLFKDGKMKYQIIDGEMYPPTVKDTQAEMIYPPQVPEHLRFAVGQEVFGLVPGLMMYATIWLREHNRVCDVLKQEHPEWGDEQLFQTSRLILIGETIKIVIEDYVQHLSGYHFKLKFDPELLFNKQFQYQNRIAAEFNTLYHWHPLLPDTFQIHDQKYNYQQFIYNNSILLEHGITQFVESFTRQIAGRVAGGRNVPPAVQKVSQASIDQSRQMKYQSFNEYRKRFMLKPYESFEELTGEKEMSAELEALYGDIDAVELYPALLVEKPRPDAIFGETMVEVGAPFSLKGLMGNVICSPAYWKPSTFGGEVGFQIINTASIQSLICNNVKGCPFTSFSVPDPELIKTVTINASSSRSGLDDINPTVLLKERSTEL
Description: The emitted fluorescence spectra of COX2 solution (6.0 × 10^−8 mol∙L^−1) without and with an increasing concentration of compounds DB2, SC2 or YB2 (7.5 × 10^−6 mol∙L^−1 to 4.5 × 10^−5 mol∙L^−1) at different temperatures are shown in Figure 4a,b, Figure 4c,d or Figure 4e,f, respectively. […] The quenching constant Kq and Stern–Volmer constant Ksv at different temperatures are usually used to identify the quenching mechanisms, static or dynamic. The former is caused by ground-state complex formation, the latter is diffusion. For the static quenching mechanism, the quenching constant decreases with temperature increase. In this part, we calculated the Kq and Ksv values by using a universally accepted Stern–Volmer equation [38]:(1) F0/F=1+Kqτ0[Q]=1+Ksv[Q] where F0 and F are the protein fluorescence intensities in the absence and the presence of quencher (compounds DB2, SC2 or YB2), respectively. Kq = Ksv/ τ0 . τ0 is the fluorescence lifetime of the fluorophore without the quencher ([…]). [Q] is the concentration of quencher. The Stern-Volmer plots of COX2 fluorescence quenching by compounds DB2, SC2 or YB2 are presented in Figure 5a, Figure 5b or Figure 5c, respectively. According to Table 1, the Ksv and Kq values for all three systems (COX2-DB2, COX2-SC2 and COX2-YB2) decreased with increasing temperature. Therefore, we considered that the quenching was static quenching. To further verify that the system was static quenching, dynamic quenching was assumed first.
For the static quenching, we can use the double logarithm equation to obtain the binding constant (KA) and the number of binding sites per protein (n):(2) lgF0−F/F=lgKA+nlg[Q]
There are four main kinds of non-covalent forces between drugs and proteins. These are electrostatic force, hydrogen bonding, hydrophobic force and van der Waals force. The kind of interaction between compounds DB2, SC2 or YB2 and COX2 can be obtained from thermodynamic parameters, including the free energy change (ΔG), enthalpy change (ΔH) and entropy change (ΔS) of the reaction. The three thermodynamic parameters can be obtained according to the published equations [42, 44]:(3) ΔG=−RTlnK (4) lnK2/K1=ΔH(1/T1−1/T2)×1/R (5) ΔG=ΔH−TΔS
(§1) The fluorescence intensity of the system was measured with a 1.0 cm quartz cell. COX2 protein was dissolved in PBS for a final concentration of 6.0 × 10^−8 mol∙L^−1. DB2, SC2 or YB2 stock solutions were prepared in singleton at 1.5 × 10^−3 mol∙L^−1 in PBS containing 0.1% DMSO. 2.0 mL COX2 solution was separately titrated by continuing additions of 10 μL compounds DB2, SC2 or YB2 solution). After incubation at 298 K or 310 K, fluorescence quenching spectra were recorded in the region 325-450 nm at a scan rate of 1200 nm∙min^−1. The local environment of Tyr and Trp residues was quite sensitive at 280 nm, so the excitation wavelength was set at this wavelength. Typically, 280 nm is also used to measure the changes in protein tertiary structure. The slit widths of emission and excitation were both fixed at 10 nm. To observe spectra behaviors of Tyr and Trp groups of COX2, the wavelength interval between the excitation and emission wavelengths (Δλ) was set as 15 nm and 60 nm, respectively. Three-dimensional fluorescence spectroscopy was obtained for an excitation range of 200–300 nm and an emission range of 325–400 nm. Appropriate buffer solutions, determined under the same operation conditions, were used as blanks. Each spectrum was recorded three times.

[2] = target: T1, COX2; test: Fluorescence resonance energy transfer between COX2 and compound; assay type: binding; details: for J (effective spectral overlap): COX2 emission vs compound absorption, each 5.0 × 10^−8 mol∙L^−1; for r (separation distance between COX2 and compound): κ^2 = 2/3, N = 1.336, φ = 0.15
Description: The transfer of energy from the protein donor to the ligand acceptor is generally seen in strong protein–ligand complexes. In addition to divulging the binding activities, assessments of the energy transfer efficiency can reveal the distance between the ligand and the ligand binding site on the protein [47]. According to Förster theory, the efficiency depends not only on the orientation and distance of the molecules but also on the extent of overlap between the donor emission and acceptor absorption. The distance between the donor and acceptor must be in the 2 to 8 nm range [47, 48]. The overlaps of fluorescence emission spectrum of COX2 with absorption spectrum of compounds DB2, SC2 or YB2 are presented in Figure 5g–i, respectively. The energy transfer efficiency (E) from donor to acceptor was calculated by a widely used method:(6) E=R06/R06+r^6=F0−F/F0 (7) R06=8.79×10^−25κ^2N^−4φJ (8) J=∑^ F(λ)ε(λ)λ^4Δλ/∑^F(λ)Δλ
Here, r is the separation distance between the donor (COX2) and acceptor (DB2, SC2 or YB2). R0 is the Förster critical distance when E = 50%. κ^2 is the orientation space factor. N is the refractive index of medium surrounding the fluorophores. φ is the fluorescence quantum yield of the donor. J is overlap integral of the donor fluorescence emission spectrum and acceptor absorption spectrum. F(λ) is the fluorescence intensity of the protein at the wavelength λ, ε(λ) is the molar absorption coefficient of acceptor at λ. Using the values of κ^2 = 2/3, N = 1.336 and φ = 0.15 [49], J and r were calculated (Table 2).
as §1

Ksv (Stern-Volmer quenching constant) ([1]; 298 K)	n (number of binding sites per protein) ([1]; 298 K)	ΔG (free energy change) ([1]; 298 K) [kcal/mol]	Kq (bimolecular quenching constant) ([1]; 298 K)	Kd ([1]; 298 K) [µM]	Ksv (Stern-Volmer quenching constant) ([1]; 310 K)	n (number of binding sites per protein) ([1]; 310 K)	ΔG (free energy change) ([1]; 310 K) [kcal/mol]	Kq (bimolecular quenching constant) ([1]; 310 K)	Kd ([1]; 310 K) [µM]	ΔH (enthalpy change) [1] [kcal/mol]	ΔS (entropy change) [1] [J∙K^−1]	J (effective spectral overlap) [2]	r (separation distance between COX2 and compound) [2] [nm]	SMILES	KA relative to the control compound [1]
2.31 ± 0.988 ×10^4 L∙mol^−1	1.01 ± 0.0469	-5.98 ± 0.0547	2.31 ± 0.988 ×10^12 L∙mol^−1∙S^−1	41.7	2.07 ± 1.03 ×10^4 L∙mol^−1	1.02 ± 0.0731	-6.14 ± 0.143	2.07 ± 1.03 ×10^12 L∙mol^−1∙S^−1	45.7	-1.61 ± 2.18	61.2 ± 31.3	1.55 ×10^−13 cm^3∙L∙mol^−1	6.62	CC(C)(C)c1ccc(C(=O)c2c(Cl)cc(O)c(O)c2O)cc1 [SC2]	approximately an order of magnitude larger
1.43 ± 0.188 ×10^4 L∙mol^−1	1.10 ± 0.0208	-6.19 ± 0.0669	1.43 ± 0.188 ×10^12 L∙mol^−1∙S^−1	28.2	1.14 ± 0.380 ×10^4 L∙mol^−1	1.03 ± 0.0633	-5.88 ± 0.134	1.14 ± 0.380 ×10^12 L∙mol^−1∙S^−1	73.1	-14.7 ± 1.96	−120 ± 28.1	1.64 ×10^−13 cm^3∙L∙mol^−1	6.42	CCCCc1ccc(C(=O)c2c(Br)cc(O)c(O)c2O)cc1 [DB2]	approximately an order of magnitude larger
3.49 ± 1.69 ×10^4 L∙mol^−1	1.07 ± 0.0551	-6.55 ± 0.0241	3.49 ± 1.69 ×10^12 L∙mol^−1∙S^−1	15.7	2.58 ± 0.562 ×10^4 L∙mol^−1	1.07 ± 0.0306	-6.62 ± 0.076	2.58 ± 0.562 ×10^12 L∙mol^−1∙S^−1	21.5	-4.95 ± 1.55	22.6 ± 21.9	1.72 ×10^−13 cm^3∙L∙mol^−1	6.47	CC(C)Cc1ccc(C(=O)c2c(Br)cc(O)c(O)c2O)cc1 [YB2]	approximately an order of magnitude larger
